Data taken from patent US20020055528A1, “Artemisinin analogs having antimalarial, antiproliferative, and antitumor activities and chemoselective methods of making the same” (priority 1999, published 2002).
“Also recorded” adds a separate entry of the source. Where two headings read alike, the source gives them in different places.

Assays:
[1] = system: MOLT-4; conditions: for Log10TGI: PG=0
Method: (§1) The screening assay is performed on 96-well microtitre plates. Relatively high initial inoculation densities are used, in order to permit measurement of “time-zero” values and to enhance the screen's ability to detect and provide some differentiation between antiproliferative and cytotoxic response parameters. […] The inoculated microtitre plates are pre-incubated for 24 hours at 37θC prior to drug additions. The five drug dilutions tested routinely range from 10^−4 to 10^−8 molar. Higher or lower concentration ranges may be selected on a nonroutine basis if appropriate solubility and/or prior biological information or other screening data so dictate. Duplicate wells are prepared for all concentrations, (concentration is often denoted by placing brackets around a number); “time-zero” and “no drug” controls are also provided for each test. The minimum amount of compound required for a one-time evaluation in the routine screen can be calculated from the knowledge that each test requires a total of approximately 40 ml (0.04 liter) of cell culture medium containing the highest desired drug concentration. Thus, the amount (grams) of sample required (assuming an upper test concentration limit of 10^−4 M) is: molecular weight of compound×[…]. After a 48 hour incubation (37θC) with the test compound, the cells are fixed in situ to the bottoms of the microtitre wells by addition of 50 ul of either 50% trichloroacetic acid (for adherent cell lines) or 80% trichloroacetic acid (for settled cell suspension lines), followed by incubation for 60 minutes at 4θC. The cellular protein in each well is assayed using a sulforhodamine B (SRB) stain procedure. Briefly, after discarding the supernatants, the microtitre plates are washed 5 times with deionized water and air-dried. One hundred microliters of SRB solution (0.4% w/v in 1% acetic acid) is added to each microtitre well and incubated for 10 minutes at room temperature. Unbound SRB is removed by washing 5 times with 1 % acetic acid. The plates are air-dried, the bound stain is solubilized with Tris buffer, and the optical densities read at 515 nm. SRB is a bright pink anionic dye which, in dilute acetic acid, binds electrostatically to the basic amino acids of TCA-fixed cells. Cryopreserved master stocks of all the lines are maintained, and cultures used for screening are replaced from the master stock after no more than twenty passages in the screening laboratory. The cell line panel consists of 60 lines, organized into nine, disease-related subpanels including leukemia, non-small-cell lung cancer, colon, CNS, melanoma, ovarian, renal, prostate and breast cancers.
(§2) The response parameters G150 and LC50 are interpolated values representing the concentrations at which the percentage growth (PG) is +50 and −50, respectively:
(§3) GI50 is the concentration for which the PG=+50. At this value the increase from time tzero, in the number or mass of cells in the test well is only 50% as much as the corresponding increase in the control well during this period of the experiment, see Table II. A drug effect of this intensity is interpreted as primary growth inhibition.
(§4) TGI is the concentration for which PG=0. At this value the number or mass of cells in the well at the end of the experiment equals the number or mass of cells in the well at time tzero, see Table III. A drug effect of this intensity is regarded as cytostasis.
(§5) LC50 is the concentration for which the PG=−50. At this value, the number or mass of cells in the test well at the end of the experiment is half that at time tzero, see Table IV. This is interpreted as cytotoxicity.

[2] = system: SR; assay: NCI 60 cell line screen (SRB), Leukemia; assay type: cell-based
[3] = system: HOP-62; assay: NCI 60 cell line screen (SRB), Non-Small Cell Lung Cancer; assay type: cell-based
[4] = system: NCI-H522; assay: as above; assay type: cell-based; conditions: for Log10TGI: PG=0
[5] = system: COLO 205; assay: NCI 60 cell line screen (SRB), Colon Cancer; assay type: cell-based
[6] = system: HCT-15; assay: NCI 60 cell line screen (SRB), Colon Cancer; assay type: cell-based; conditions: for Log10TGI: PG=0
[7] = system: LOX IMVI; assay: NCI 60 cell line screen (SRB), Melanoma; assay type: cell-based; conditions: for Log10TGI: PG=0
[8] = system: OVCAR-3; assay: NCI 60 cell line screen (SRB), Ovarian Cancer; assay type: cell-based; conditions: PG=0
[9] = system: OVCAR-8; assay: NCI 60 cell line screen (SRB), Ovarian Cancer; assay type: cell-based
[10] = system: 786-0; assay: NCI 60 cell line screen (SRB), Renal Cancer; assay type: cell-based; conditions: for Log10TGI: PG=0
[11] = system: RXF 393; assay: NCI 60 cell line screen (SRB), Renal Cancer; assay type: cell-based; conditions: for Log10TGI: PG=0
[12] = system: SN12C; assay: NCI 60 cell line screen (SRB), Renal Cancer; assay type: cell-based
[13] = system: PC-3; assay: NCI 60 cell line screen (SRB), Prostate Cancer; assay type: cell-based; conditions: for Log10TGI: PG=0
[14] = system: MCF7; assay: NCI 60 cell line screen (SRB), Breast Cancer; assay type: cell-based
[15] = system: MDA-MB-435; assay: NCI 60 cell line screen (SRB), Breast Cancer; assay type: cell-based
[16] = system: MDA-N; assay: NCI 60 cell line screen (SRB), Breast Cancer; assay type: cell-based; conditions: for Log10TGI: PG=0
[17] = system: BT-549; assay: NCI 60 cell line screen (SRB), Breast Cancer; assay type: cell-based
[18] = system: 60 cell line panel; assay: NCI 60 cell line screen (SRB), whole panel; assay type: cell-based
Method: as §1, §2, §3, §4, §5

[19] = system: SNB-75; assay: NCI 60 cell line screen (SRB), CNS Cancer; assay type: cell-based
[20] = Table IV (LC50, PG=−50), MOLT−4

CC(=O)O[C@H]1C(=O)[C@@]2(C)[C@H]([C@H](OC(=O)c3ccccc3)[C@]3(O)C[C@H](OC(=O)[C@H](O)[C@@H](NC(=O)c4ccccc4)c4ccccc4)C(C)=C1C3(C)C)[C@]1(OC(C)=O)CO[C@@H]1C[C@@H]2O [Paclitaxel, paclitaxel, reference compound]
Log10GI50 ([1]; MOLT-4, PG=+50): −11.07 log10M
Log10TGI ([1]; MOLT−4): −11.07 log10M
Log10GI50 [1, 20]: >−4.00 log10M
drug concentration for cytotoxicity (percentage growth −50) ([1]; human, 48 h): greater than 10^−4 M
Log10GI50 ([2]; Table IV (LC50, PG=−50)): >−4.00 log10M
Log10GI50 ([3]; PG=+50): −9.67 log10M
Log10TGI [4]: −4.92 log10M
Log10GI50 ([4]; PG=+50): <−13.00 log10M
Log10GI50 ([4]; Table IV (LC50, PG=−50)): >−4.00 log10M
Log10GI50 ([5]; PG=+50): −11.07 log10M
Log10GI50 ([5]; Table IV (LC50, PG=−50)): >−4.41 log10M
Log10TGI [6]: >−4.00 log10M
Log10TGI [7]: −4.65 log10M
Log10GI50 ([7]; PG=+50): −11.80 log10M
Log10GI50 ([7]; Table IV (LC50, PG=−50)): −4.15 log10M
Log10TGI [8]: −4.55 log10M
Log10GI50 ([9]; PG=+50): −10.75 log10M
Log10GI50 ([9]; Table IV (LC50, PG=−50)): >−4.00 log10M
Log10TGI [10]: >−4.00 log10M
Log10GI50 ([10]; PG=+50): −8.01 log10M
Log10GI50 ([10]; Table IV (LC50, PG=−50)): >−4.00 log10M
Log10TGI [11]: >−4.00 log10M
Log10GI50 ([11]; PG=+50): −8.32 log10M
Log10GI50 ([11]; Table IV (LC50, PG=−50)): >−4.00 log10M
Log10GI50 ([12]; SNI2C, PG=+50): −9.53 log10M
Log10GI50 ([12]; Table IV (LC50, PG=−50), SN12C): >−4.00 log10M
Log10TGI [13]: >−4.00 log10M
Log10GI50 ([14]; PG=+50): −11.69 log10M
Log10GI50 ([14]; Table IV (LC50, PG=−50)): >−4.00 log10M
Log10GI50 ([15]; MDA-MB−435, PG=+50): <-13.00 log10M
Log10TGI [16]: −6.32 log10M
Log10GI50 ([16]; PG=+50): −9.31 log10M
Log10GI50 ([16]; Table IV (LC50, PG=−50)): >−4.00 log10M
Log10GI50 ([17]; PG=+50): −9.81 log10M
Range of Log10GI50 (Table IV) ([18]; Table IV (LC50), panel summary): 4.06
Delta of Log10GI50 ([18]; panel summary): −10.15
Delta of Log10TGI ([18]; panel summary): −4.54
Range of Log10GI50 ([18]; panel summary): 8.00
Range of Log10TGI ([18]; panel summary): 7.20

CC1=C(C=Cc2cccc(C=CC3=C(C)C4CCC(C)C5CCC6(C)OOC45C(O3)O6)c2)OC2OC3(C)CCC4C(C)CCC1C24OO3 (stereo not drawn) [VII-f]
drug concentration for cytotoxicity (percentage growth −50) [1]: greater than 10^−4 M
drug concentration for cytostasis (percentage growth 0) ([1]; MOLT-4, FIGS. 6a-6e): approximately 10^−4 M
drug concentration for primary growth inhibition (percentage growth +50) ([1]; MOLT-4, FIGS. 6a-6e): greater than 10^−6 molar
Log10GI50 ([1]; MOLT-4, PG=+50): −6.23 log10M
Log10TGI ([1]; MOLT−4): −6.23 log10M
Log10GI50 [1, 20]: >−4.00 log10M
Log10TGI ([2]; PG=0): −6.19 log10M
Log10GI50 ([2]; PG=+50): −6.19 log10M
Log10GI50 ([2]; Table IV (LC50, PG=−50)): >−4.00 log10M
Log10TGI ([3]; PG=0): >−4.00 log10M
Log10GI50 ([3]; PG=+50): −5.77 log10M
Log10GI50 ([3]; Table IV (LC50, PG=−50)): >−4.00 log10M
Log10TGI [4]: >−4.00 log10M
Log10GI50 ([4]; PG=+50): −6.07 log10M
Log10GI50 ([4]; Table IV (LC50, PG=−50)): >−4.00 log10M
Log10TGI ([5]; PG=0): −5.93 log10M
Log10GI50 ([5]; PG=+50): −6.61 log10M
Log10GI50 ([5]; Table IV (LC50, PG=−50)): −5.30 log10M
Log10TGI [6]: −4.82 log10M
log10 GI50 (PG=+50) or LC50 (PG=−50), per row condition ([6]; PG=+50): −6.13 log10M
log10 GI50 (PG=+50) or LC50 (PG=−50), per row condition ([6]; Table IV (LC50, PG=−50)): >−4.00 log10M
Log10 GI50 (PG=+50) or LC50 (PG=−50) ([19]; PG=+50): −5.84 log10M
Log10 GI50 (PG=+50) or LC50 (PG=−50) ([19]; Table IV (LC50, PG=−50)): >−4.00 log10M
Log10TGI [7]: >−4.00 log10M
Log10GI50 ([7]; PG=+50): −5.79 log10M
Log10GI50 ([7]; Table IV (LC50, PG=−50)): >−4.00 log10M
Log10TGI [8]: >−4.00 log10M
Log10TGI ([9]; PG=0): −4.21 log10M
Log10GI50 ([9]; PG=+50): −5.57 log10M
Log10GI50 ([9]; Table IV (LC50, PG=−50)): >−4.00 log10M
Log10TGI [10]: >−4.00 log10M
Log10GI50 ([10]; PG=+50): −5.40 log10M
Log10GI50 ([10]; Table IV (LC50, PG=−50)): >−4.00 log10M
Log10TGI [11]: >−4.00 log10M
Log10GI50 ([11]; PG=+50): −5.91 log10M
Log10GI50 ([11]; Table IV (LC50, PG=−50)): >−4.00 log10M
Log10TGI ([12]; SN12C, PG=0): >−4.00 log10M
Log10GI50 ([12]; SNI2C, PG=+50): −5.73 log10M
Log10GI50 ([12]; Table IV (LC50, PG=−50), SN12C): >−4.00 log10M
Log10TGI [13]: >−4.00 log10M
Log10 GI50 (PG=+50) or LC50 (PG=−50) ([13]; PG=+50): −6.30 log10M
Log10 GI50 (PG=+50) or LC50 (PG=−50) ([13]; Table IV (LC50, PG=−50)): >−4.00 log10M
Log10TGI ([14]; PG=0): >−4.00 log10M
Log10GI50 ([14]; PG=+50): −6.06 log10M
Log10GI50 ([14]; Table IV (LC50, PG=−50)): >−4.00 log10M
Log10TGI ([15]; MDA-MB-435, PG=0): >−4.00 log10M
Log10GI50 ([15]; MDA-MB−435, PG=+50): −5.86 log10M
Log10GI50 ([15]; Table IV (LC50, PG=−50), MDA-MB-435): >−4.00 log10M
Log10TGI [16]: −4.18 log10M
Log10GI50 ([16]; PG=+50): −5.74 log10M
Log10GI50 ([16]; Table IV (LC50, PG=−50)): >−4.00 log10M
Log10GI50 ([17]; PG=+50): −6.50 log10M
Log10GI50 ([17]; Table IV (LC50, PG=−50)): >−4.00 log10M
MG MID of Log10GI50 (Table IV) ([18]; Table IV (LC50), mean over the panel): −4.23 log10M
Delta of Log10GI50 (Table IV) ([18]; Table IV (LC50), panel summary): 1.70
Range of Log10GI50 (Table IV) ([18]; Table IV (LC50), panel summary): 1.93
potency in words, compared with artemisinin and paclitaxel ([18]; Tables II, III and IV): in most instances are as potent and in some instances more potent than paclitaxel; also recorded: more potent than artemisinin and equivalent to and in many instances higher in potency than paclitaxel
MG MID of Log10GI50 ([18]; mean over the panel): −5.73 log10M
MG MID of Log10TGI ([18]; mean over the panel): −4.23 log10M
Delta of Log10GI50 ([18]; panel summary): 0.98
Delta of Log10TGI ([18]; panel summary): 1.70
Range of Log10GI50 ([18]; panel summary): 2.71
Range of Log10TGI ([18]; panel summary): 1.93
